Results as given in ChEMBL document CHEMBL4118289, “Developing hybrid molecule therapeutics for diverse enzyme inhibitory action: Active role of coumarin-based structural leads in drug discovery” (Bioorg Med Chem, 2018).

Assays:
[1] = molecular target: Aldo-keto reductase family 1 member B1 (Bos taurus) (UniProt P16116); assay: Potency index, ratio of valproic acid IC50 to compound IC50 for bovine kidney ALR1
Rattus norvegicus [2] = assay: Antiinflammatory activity in albino rat assessed as inhibition of carrageenan-induced paw edema at 10 umol/kg, sc pretreated for 1 hr followed by carrageenan challenge measured after 4 hrs by plethysmographic method relative to control; format: functional
[3] = molecular target: Prostaglandin G/H synthase 1 (Homo sapiens, UniProt P23219); assay: Inhibition of human COX1 using [14C]arachidonic acid as substrate preincubated for 5 mins followed by substrate addition measured after 2 mins by TLC
Homo sapiens = species on record: Homo sapiens; assay: Selectivity ratio of IC50 for human COX1 to IC50 for human COX2
Cholinesterase [4] = molecular target: Cholinesterase (Equus caballus, UniProt P81908); assay: Inhibition of equine serum BChE using butyrylthiocholine iodide as substrate preincubated for 15 mins followed by substrate addition by Ellman's method
[5] = molecular target: Cholinesterase (Equus caballus) (UniProt P81908); assay: Potency index, ratio of galanthamine IC50 to compound IC50 for equine serum BChE
Saccharomyces cerevisiae = assay: Potency index, ratio of acarbose IC50 to compound IC50 for Saccharomyces cerevisiae alpha-glucosidase
[6] = molecular target: Intestinal-type alkaline phosphatase (Bos taurus, UniProt P19111)
Description: Inhibition of calf intestinal alkaline phosphatase using pNPP as substrate preincubated for 10 mins followed by substrate addition measured after 30 mins

Tyrosinase = molecular target: T1, Tyrosinase (Agaricus bisporus, UniProt O42713); assay: Inhibition of mushroom tyrosinase using L-DOPA as substrate preincubated for 10 mins followed by substrate addition measured after 20 mins
T1 sequence (O42713 whole entry): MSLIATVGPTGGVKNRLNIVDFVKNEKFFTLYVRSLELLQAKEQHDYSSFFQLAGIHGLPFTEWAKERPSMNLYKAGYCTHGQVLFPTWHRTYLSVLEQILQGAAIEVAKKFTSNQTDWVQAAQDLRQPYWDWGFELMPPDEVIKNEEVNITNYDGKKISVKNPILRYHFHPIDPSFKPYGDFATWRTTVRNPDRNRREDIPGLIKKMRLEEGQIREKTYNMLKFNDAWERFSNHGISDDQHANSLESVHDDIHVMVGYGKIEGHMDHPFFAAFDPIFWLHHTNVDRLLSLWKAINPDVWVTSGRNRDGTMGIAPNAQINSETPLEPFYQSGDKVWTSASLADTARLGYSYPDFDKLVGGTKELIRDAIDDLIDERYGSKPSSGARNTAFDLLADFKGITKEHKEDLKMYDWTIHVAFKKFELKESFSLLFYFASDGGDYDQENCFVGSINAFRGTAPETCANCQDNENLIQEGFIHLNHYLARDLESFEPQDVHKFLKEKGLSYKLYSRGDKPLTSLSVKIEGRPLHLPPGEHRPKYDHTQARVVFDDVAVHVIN

[7] = molecular target: Aldo-keto reductase family 1 member B1 (Bos taurus, UniProt P16116); assay: Inhibition of calf lens ALR2 using D,L-glyceraldehyde as substrate preincubated for 5 mins followed by NADPH addition measured after 10 mins by UV spectrophotometric method
[8] = molecular target: Aldo-keto reductase family 1 member B1 (Bos taurus) (UniProt P16116); assay: Potency index, ratio of sulindac IC50 to compound IC50 for calf lens ALR2
Bos taurus = species on record: Bos taurus; assay: Selectivity index, ratio of IC50 for bovine kidney ALR1 to IC50 for calf lens ALR2
Cholinesterase [9] = molecular target: Cholinesterase (Homo sapiens, UniProt P06276); assay: Inhibition of human plasmatic BuChE using butylthiocholine as substrate preincubated for 5 mins followed by substrate addition measured at 1 min time interval by Ellman's method
Acetylcholinesterase [10] = molecular target: T2, Acetylcholinesterase (Homo sapiens, UniProt P22303); assay: Potency index, ratio of 7-MEOTA IC50 to compound IC50 for human erythrocyte AChE
Acetylcholinesterase [11] = molecular target: T2, Acetylcholinesterase
[12] = molecular target: Lipoxygenase (Glycine max) (UniProt Q39829); assay: Potency index, ratio of NDGA IC50 to compound IC50 for soybean lipoxygenase
Lipoxygenase = Lipoxygenase (Glycine max, UniProt Q39829)
Description: Inhibition of soybean lipoxygenase

Rattus norvegicus [13] = assay: Antiinflammatory activity in Wistar rat assessed as inhibition of formalin-induced paw oedema at 20 mg/kg, po equiv of indomethacin pretreated for 1 hr followed by formalin addition measured up to 6 hrs post dose by plethysmographic method relative to control; format: functional
[14] = Non-competitive inhibition of baker's yeast alpha-glucosidase using pNPG as substrate preincubated for 10 mins followed by substrate addition measured after 30 mins by Lineweaver-Burk plot analysis; design: species or system Saccharomyces cerevisiae

Prostaglandin G/H synthase 1, sequence (P23219 whole entry): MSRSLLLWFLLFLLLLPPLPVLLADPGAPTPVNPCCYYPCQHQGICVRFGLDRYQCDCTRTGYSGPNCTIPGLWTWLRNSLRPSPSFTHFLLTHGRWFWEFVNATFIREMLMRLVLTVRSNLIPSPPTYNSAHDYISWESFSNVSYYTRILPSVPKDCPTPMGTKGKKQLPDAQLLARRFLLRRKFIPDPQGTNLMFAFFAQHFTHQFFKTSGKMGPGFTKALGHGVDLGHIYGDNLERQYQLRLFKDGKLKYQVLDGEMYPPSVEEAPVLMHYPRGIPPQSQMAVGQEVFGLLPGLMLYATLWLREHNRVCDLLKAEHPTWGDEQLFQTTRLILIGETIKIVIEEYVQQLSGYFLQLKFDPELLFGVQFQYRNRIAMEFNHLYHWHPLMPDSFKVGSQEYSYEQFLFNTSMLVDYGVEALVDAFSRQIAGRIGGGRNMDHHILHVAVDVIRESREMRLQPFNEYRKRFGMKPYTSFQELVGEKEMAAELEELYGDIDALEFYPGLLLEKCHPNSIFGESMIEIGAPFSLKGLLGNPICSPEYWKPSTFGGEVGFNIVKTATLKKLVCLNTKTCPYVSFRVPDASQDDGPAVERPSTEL
T2 sequence (P22303 whole entry): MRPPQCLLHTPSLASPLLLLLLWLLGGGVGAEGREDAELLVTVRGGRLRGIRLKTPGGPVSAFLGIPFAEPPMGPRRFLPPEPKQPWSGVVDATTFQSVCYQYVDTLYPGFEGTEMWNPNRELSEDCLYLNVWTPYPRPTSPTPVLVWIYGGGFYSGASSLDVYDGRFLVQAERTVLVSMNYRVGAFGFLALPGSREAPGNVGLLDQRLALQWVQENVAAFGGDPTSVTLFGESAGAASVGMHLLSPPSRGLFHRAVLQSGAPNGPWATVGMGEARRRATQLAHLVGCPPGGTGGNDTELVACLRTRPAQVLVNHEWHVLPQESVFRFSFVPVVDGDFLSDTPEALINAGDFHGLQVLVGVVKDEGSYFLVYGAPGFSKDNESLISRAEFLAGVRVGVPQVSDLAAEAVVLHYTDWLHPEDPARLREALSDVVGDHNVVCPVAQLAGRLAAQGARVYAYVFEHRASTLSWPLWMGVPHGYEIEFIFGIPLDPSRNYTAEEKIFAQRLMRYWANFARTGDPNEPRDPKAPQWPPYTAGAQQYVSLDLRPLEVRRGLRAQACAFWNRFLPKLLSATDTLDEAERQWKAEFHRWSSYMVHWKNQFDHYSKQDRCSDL
Intestinal-type alkaline phosphatase, sequence (P19111 whole entry): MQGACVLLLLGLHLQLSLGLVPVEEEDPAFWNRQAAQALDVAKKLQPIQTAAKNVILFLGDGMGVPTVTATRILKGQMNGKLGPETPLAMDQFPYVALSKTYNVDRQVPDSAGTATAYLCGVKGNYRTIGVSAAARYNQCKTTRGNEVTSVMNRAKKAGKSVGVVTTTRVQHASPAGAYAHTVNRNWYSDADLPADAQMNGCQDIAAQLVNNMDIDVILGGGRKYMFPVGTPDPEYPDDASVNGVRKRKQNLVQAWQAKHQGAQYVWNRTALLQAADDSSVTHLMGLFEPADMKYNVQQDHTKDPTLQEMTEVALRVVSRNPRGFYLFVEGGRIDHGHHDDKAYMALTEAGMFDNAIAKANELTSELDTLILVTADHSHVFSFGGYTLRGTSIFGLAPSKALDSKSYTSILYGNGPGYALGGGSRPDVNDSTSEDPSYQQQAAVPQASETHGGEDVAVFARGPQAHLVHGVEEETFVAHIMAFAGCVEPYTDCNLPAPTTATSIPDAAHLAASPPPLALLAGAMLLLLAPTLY
Cholinesterase (Equus caballus), sequence (P81908 whole entry): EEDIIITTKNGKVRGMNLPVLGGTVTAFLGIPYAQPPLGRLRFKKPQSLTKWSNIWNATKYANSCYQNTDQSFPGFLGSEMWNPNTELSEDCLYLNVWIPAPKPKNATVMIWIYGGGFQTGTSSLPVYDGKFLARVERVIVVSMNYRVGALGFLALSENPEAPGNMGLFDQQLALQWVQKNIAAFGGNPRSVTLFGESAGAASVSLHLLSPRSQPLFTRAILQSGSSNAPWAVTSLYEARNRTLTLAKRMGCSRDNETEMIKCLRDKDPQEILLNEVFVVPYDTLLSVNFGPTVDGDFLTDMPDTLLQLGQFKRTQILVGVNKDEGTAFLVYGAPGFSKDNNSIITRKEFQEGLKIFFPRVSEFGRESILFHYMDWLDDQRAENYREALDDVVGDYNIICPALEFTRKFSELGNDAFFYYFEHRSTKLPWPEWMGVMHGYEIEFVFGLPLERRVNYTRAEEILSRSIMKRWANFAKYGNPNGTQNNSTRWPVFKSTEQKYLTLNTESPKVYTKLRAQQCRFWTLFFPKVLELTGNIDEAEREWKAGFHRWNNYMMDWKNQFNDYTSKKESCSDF
Cholinesterase (Equus caballus, UniProt P81908), sequence (P81908 whole entry): as above
Cholinesterase (Homo sapiens, UniProt P06276), sequence (P06276 whole entry): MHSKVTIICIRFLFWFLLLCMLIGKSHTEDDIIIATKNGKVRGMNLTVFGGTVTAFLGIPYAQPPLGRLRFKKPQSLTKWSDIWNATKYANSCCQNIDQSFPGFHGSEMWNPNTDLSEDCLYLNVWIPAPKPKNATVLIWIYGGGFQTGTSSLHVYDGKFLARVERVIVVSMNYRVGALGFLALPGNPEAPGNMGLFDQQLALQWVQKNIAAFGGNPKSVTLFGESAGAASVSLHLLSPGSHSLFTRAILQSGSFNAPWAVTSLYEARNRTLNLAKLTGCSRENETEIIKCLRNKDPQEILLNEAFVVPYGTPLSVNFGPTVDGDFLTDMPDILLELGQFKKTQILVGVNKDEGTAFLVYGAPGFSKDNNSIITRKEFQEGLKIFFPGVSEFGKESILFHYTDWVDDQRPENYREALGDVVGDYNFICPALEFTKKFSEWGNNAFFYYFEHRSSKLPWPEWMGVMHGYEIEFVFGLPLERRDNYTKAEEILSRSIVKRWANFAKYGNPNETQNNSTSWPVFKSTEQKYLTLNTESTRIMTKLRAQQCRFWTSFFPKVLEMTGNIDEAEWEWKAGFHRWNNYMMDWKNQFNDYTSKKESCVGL

C/C(=N\Nc1nc(-c2cc3ccccc3oc2=O)cs1)c1ccc(Cl)cc1N
Ratio IC50 [1]: 125

C/C(=N\N=C1\CC(C)C(=O)N1C)c1cc2ccccc2oc1=O (configuration not stated)
inhibition in vivo at 10 µmol/kg (Rattus norvegicus [2]): 92.2% | IC50 [3]: 56 to 167 µM | Ratio IC50 (Homo sapiens): 223

CCN1C(C)=CC/C1=N/N=C(\C)c1cc2ccccc2oc1=O
inhibition in vivo at 10 µmol/kg (Rattus norvegicus [2]): 88.9% | IC50 [3]: 56 to 167 µM

CCCCNCn1nc(-c2cc3ccccc3oc2=O)oc1=S
Ratio IC50 [1]: 17

O=C(Nc1ccc(F)cc1)Nc1nc(-c2cc3cc([N+](=O)[O-])ccc3oc2=O)cs1
IC50 (Cholinesterase [4]): 4.93 µM | Ratio IC50 [5]: 4

O=C(Cn1c(Cc2ccc(Cl)c(Cl)c2)nc2ccccc2c1=O)NNC(=O)c1cc2ccccc2oc1=O
Ratio IC50 (Saccharomyces cerevisiae): 4 to 5

Cc1ccc(-n2c(-c3cc4ccccc4oc3=O)cs/c2=N/NC(=O)c2cc3ccccc3oc2=O)c(C)c1
IC50 [6]: 1.38 µM

COc1cc(C2CC(c3cc4ccccc4oc3=O)=NN2c2nc(-c3ccc(Br)cc3)cs2)ccc1OCc1ccccc1 (configuration not stated)
IC50 (Tyrosinase): 0.00458 µM

CCOC(=O)C1=C(C)N(CC)/C(=N\N=C(/C)c2cc3ccccc3oc2=O)C1
inhibition in vivo at 10 µmol/kg (Rattus norvegicus [2]): 94.5% | IC50 [3]: 56 to 167 µM

C/C(=N\Nc1nc(-c2cc3ccccc3oc2=O)cs1)c1ccc(Br)cc1
IC50 [7]: 0.11 µM | Ratio IC50 [8]: 3 | Ratio IC50 (Bos taurus): 9.17

O=C(Cc1cc(=O)oc2cc(O)ccc12)NCCCCCCCNC(=O)c1cccc2c(=O)c3ccccc3[nH]c12
IC50 (Cholinesterase [9]): 32.5 µM | Ratio IC50 (Acetylcholinesterase [10]): 3 | IC50 (Acetylcholinesterase [11]): 5.85 µM

C/C(=N\N=C1\CCC(=O)N1C)c1cc2ccccc2oc1=O
inhibition in vivo at 10 µmol/kg (Rattus norvegicus [2]): 71.9% | IC50 [3]: 56 to 167 µM

CC1=CC/C(=N/N=C(\C)c2cc3ccccc3oc2=O)N1C
inhibition in vivo at 10 µmol/kg (Rattus norvegicus [2]): 90% | IC50 [3]: 56 to 167 µM

O=c1oc2ccccc2cc1-c1nn(CNc2ccccc2Cl)c(=S)o1
IC50 [7]: 0.31 µM

O=c1oc2ccccc2c(O)c1/C=C/n1cnc2c(N3CCCCC3)ncnc21
Ratio IC50 [12]: 4 | IC50 (Lipoxygenase): 6.25 µM

O=c1oc2ccccc2c(O)c1/C=C/n1cnc2c(NCc3ccccc3)ncnc21
IC50 (Lipoxygenase): 20 µM

O=c1oc2cc(Cl)ccc2cc1-c1nc2ccccc2[nH]1
inhibition in vivo at 20 mg/kg (Rattus norvegicus [13]): 47%

O=c1oc2ccccc2cc1-c1nn(CN2CCOCC2)c(=S)o1
IC50 [7]: 0.34 µM

O=C(Cn1c(Cc2ccc(Br)cc2)nc2ccccc2c1=O)NNC(=O)c1cc2ccccc2oc1=O
Ratio IC50 (Saccharomyces cerevisiae): 4 to 5

O=C(N/N=C/c1cc(Cl)cc(Cl)c1O)c1nc(-c2cc3ccccc3oc2=O)cs1
Ki [14]: 6.86 µM
